Data reported in PubChem BioAssay (NCI).
Where “and” joins values, the source holds several entries; their conditions need not be identical. Equal entries are not always repeated.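 Five compound concentrations were applied to cells in 96-well plates for 48 hours; endpoints were derived by simple linear interpolation of the resulting dose-response curve. Here, GI50 denotes the concentration required for 50% inhibition of growth. TGI: concentration producing complete growth inhibition.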

How the values were obtained:
Test in all cases: inhibition of tumour cell growth, NCI panel, 48 h
[1] = tested on: CAKI-1 renal
[2] = tested on: HCC-2998 colon
[3] = tested on: HL-60(TB) leukemia
[4] = tested on: NCI-H226 lung
[5] = tested on: OVCAR-5 ovarian
[6] = tested on: OVCAR-8 ovarian
[7] = tested on: RPMI-8226 leukemia
[8] = tested on: SF-295 CNS
[9] = tested on: SR leukemia
[10] = tested on: MDA-MB-231 breast

`O=C1CCCCC1S(=O)(=O)c1ccccc1` (stereo not drawn) showed a TGI [1] greater than 100 µM, a TGI [2] greater than 100 µM and a TGI [3] greater than 100 µM. It also gave a TGI [4] greater than 100 µM, a TGI [5] greater than 100 µM and a TGI [6] greater than 100 µM. The TGI [7] was greater than 100 µM, the TGI [8] was greater than 100 µM and the TGI [9] was greater than 100 µM.
With `O=S(=O)(/C=C/c1ccc(F)cc1)Cc1ccc(CS(=O)(=O)/C=C/c2ccc(F)cc2)cc1` the TGI [1] was greater than 100 µM, the TGI [2] was greater than 100 µM and the TGI [3] was greater than 100 µM. The TGI [4] was greater than 100 µM, the TGI [5] was greater than 100 µM and the TGI [6] was greater than 100 µM. The TGI [7] was greater than 100 µM, the TGI [8] was greater than 100 µM and the TGI [9] was greater than 100 µM.
Work on `NNC(=O)C1CCC(=O)N1S(=O)(=O)c1ccccc1` (stereo not drawn) yielded a TGI [1] greater than 100 µM, a TGI [2] greater than 100 µM and a TGI [3] greater than 100 µM. It also gave a TGI [4] greater than 100 µM, a TGI [5] greater than 100 µM and a TGI [6] greater than 100 µM. It also gave a TGI [7] greater than 100 µM, a TGI [8] greater than 100 µM and a TGI [9] greater than 100 µM.
`CCCCCCCCCCCCCCCC(=O)OCC1OC(n2cc(F)c(=O)[nH]c2=O)C(N)C(O)C1O` (stereo not drawn) showed a TGI [1] of 37.5 µM, a TGI [2] of 27.8 µM and a TGI [3] of 37.4 µM. The TGI [4] was 35.9 µM, the TGI [5] was 58.8 µM and the TGI [6] was 37.1 µM. It also gave a TGI [7] of 51.3 µM and a TGI [8] of 31.1 µM.
Compound `Cc1cc2c(cc1Cl)SC1=NN(C)C(C)N1S2(=O)=O` (stereo not drawn) has a GI50 [1] greater than 100 µM, a TGI [1] greater than 100 µM and a GI50 [2] greater than 100 µM. It also gave a TGI [2] greater than 100 µM, a GI50 [10] greater than 100 µM and a TGI [10] greater than 100 µM. It also gave a GI50 [4] greater than 100 µM, a TGI [4] greater than 100 µM and a GI50 [5] greater than 100 µM. For the same compound, the TGI [5] was greater than 100 µM, the GI50 [6] was greater than 100 µM and the TGI [6] was greater than 100 µM. For the same compound, the GI50 [7] was greater than 100 µM, the TGI [7] was greater than 100 µM and the GI50 [8] was greater than 100 µM. The TGI [8] was greater than 100 µM, the GI50 [9] was 39.2 µM and the TGI [9] was greater than 100 µM.
With `Cc1nc(Nc2ccccc2)sc1C(=O)CC(=O)C(=O)Nc1c(C(C)C)cccc1C(C)C` the TGI [1] was greater than 100 µM, the TGI [2] was greater than 100 µM and the TGI [3] was greater than 100 µM. For the same compound, the TGI [4] was greater than 100 µM, the TGI [5] was greater than 100 µM and the TGI [6] was greater than 100 µM. The TGI [8] was greater than 100 µM and the TGI [9] was greater than 100 µM.
For `O=C(c1ccc(Cl)cc1Cl)C1[C@H]2C(=O)N(c3ccc(Cc4ccc(N5C(=O)[C@@H]6ON(c7ccccc7)C(C(=O)c7ccc(Cl)cc7Cl)[C@@H]6C5=O)cc4)cc3)C(=O)[C@H]2ON1c1ccccc1` (stereo partly drawn), the TGI [1] was greater than 50 µM, the TGI [2] was greater than 50 µM and the TGI [3] was greater than 50 µM. It also gave a TGI [4] greater than 50 µM, a TGI [5] greater than 50 µM and a TGI [6] greater than 50 µM. It also gave a TGI [7] greater than 50 µM, a TGI [8] greater than 50 µM and a TGI [9] greater than 50 µM.
`Cc1ccc2c(c1)-c1c3c(nn1-c1ccccc1)-c1ccccc1SC3O2` (stereo not drawn) gave a TGI [2] greater than 100 µM, a TGI [3] greater than 100 µM and a TGI [5] greater than 100 µM. For the same compound, the TGI [6] was greater than 100 µM, the TGI [7] was greater than 100 µM and the TGI [8] was greater than 100 µM.
Compound `CCOC(=O)/C(C1=NCCN1)=C(\O)c1ccccc1` has a TGI [1] greater than 100 µM, a TGI [2] greater than 100 µM and a TGI [3] greater than 100 µM. For the same compound, the TGI [4] was greater than 100 µM, the TGI [5] was greater than 100 µM and the TGI [6] was greater than 100 µM. For the same compound, the TGI [7] was greater than 100 µM, the TGI [8] was greater than 100 µM and the TGI [9] was greater than 100 µM.
`COc1cc2ccnc3c2c(c1OC)-c1coc(SC)c1-3` gave a TGI [1] greater than 100 µM, a TGI [2] greater than 100 µM and a TGI [3] greater than 100 µM. The TGI [5] was greater than 100 µM, the TGI [6] was greater than 100 µM and the TGI [7] was greater than 100 µM. It also gave a TGI [8] greater than 100 µM and a TGI [9] greater than 100 µM.
With `c1cncc(C2N3CCCCC3[C@@H]3c4[nH]c5ccccc5c4CCN23)c1` (stereo partly drawn) the TGI [1] was greater than 100 µM, the TGI [3] was greater than 100 µM and the TGI [5] was greater than 100 µM. It also gave a TGI [6] greater than 100 µM, a TGI [7] greater than 100 µM and a TGI [8] greater than 100 µM.
`NC(=O)CN(CC(N)=O)C(N)=O` was tested, and the TGI [1] was greater than 100 µM, the TGI [3] was greater than 100 µM and the TGI [4] was greater than 100 µM. For the same compound, the TGI [5] was greater than 100 µM, the TGI [6] was greater than 100 µM and the TGI [7] was greater than 100 µM. For the same compound, the TGI [8] was greater than 100 µM.
`CC(=O)[CH-]C(=O)c1ccccc1.CC(=O)[CH-]C(=O)c1ccccc1.CC[O-].CC[O-].[Hf+4]` gave a GI50 [1] greater than 100 µM, a TGI [1] greater than 100 µM and a GI50 [2] greater than 100 µM. It also gave a TGI [2] greater than 100 µM, a GI50 [3] greater than 100 µM and a TGI [3] greater than 100 µM. The GI50 [4] was greater than 100 µM, the TGI [4] was greater than 100 µM and the GI50 [5] was greater than 100 µM. It also gave a TGI [5] greater than 100 µM, a GI50 [6] greater than 100 µM and a TGI [6] greater than 100 µM. The GI50 [7] was greater than 100 µM, the TGI [7] was greater than 100 µM and the GI50 [8] was greater than 100 µM. It also gave a TGI [8] greater than 100 µM.
In the case of `C=CCN=C(N/N=C/c1ccc([N+](=O)[O-])o1)NS(=O)(=O)c1cc(C(=O)Nc2ccc(Cl)cc2)c(Cl)cc1SC`, the GI50 [1] is reported as 8.55 µM, the TGI [1] is reported as greater than 100 µM and the GI50 [2] is reported as 2.29 µM. It also gave a TGI [2] of 5.96 µM, a GI50 [3] of 1.05 µM and a TGI [3] of 8.09 µM. The GI50 [4] was 13.5 µM, the TGI [4] was greater than 100 µM and the GI50 [5] was 14.1 µM. The TGI [5] was greater than 100 µM, the TGI [6] was greater than 20.7 µM and the GI50 [7] was 0.504 µM. The GI50 [8] was greater than 100 µM, the TGI [8] was greater than 100 µM and the GI50 [9] was 1.28 µM. The TGI [9] was greater than 23.6 µM.
`COc1ccc2c(CN3CCCC[C@H]3C(=O)O)cc3cc4c(cc3c2c1)OCO4` was tested, and the GI50 [1] was 0.747 µM, the TGI [1] was 3.37 µM and the GI50 [2] was 3.56 µM. The TGI [2] was greater than 100 µM, the GI50 [10] was 0.799 µM and the TGI [10] was 3.59 µM. For the same compound, the GI50 [4] was 1.42 µM, the TGI [4] was 3.13 µM and the GI50 [5] was 6.17 µM. For the same compound, the TGI [5] was 44.5 µM, the GI50 [6] was 0.457 µM and the TGI [6] was 11.7 µM. The GI50 [7] was 2.57 µM, the TGI [7] was 7.24 µM and the GI50 [8] was 0.622 µM. The TGI [8] was 3.53 µM.
`COc1cc(OC)c(C/C=C/c2ccccc2)cc1O` was tested, and the TGI [1] was 40.9 µM, the TGI [2] was 29.8 µM and the TGI [3] was 52.2 µM. The TGI [10] was 31.7 µM, the TGI [4] was 33.8 µM and the TGI [5] was 69.9 µM. For the same compound, the TGI [6] was 32.8 µM and the TGI [7] was 38 µM.
`CCCCCCC[CH2][Sn]([CH2]CCCCCCC)([O]c1cccc2cccnc12)[O]c1cccc2cccnc12` showed a GI50 [1] of 2.54 µM, a TGI [1] of 8.41 µM and a GI50 [2] of 1.99 µM. The TGI [2] was 3.43 µM, the GI50 [4] was 2.24 µM and the TGI [4] was 5.53 µM. For the same compound, the GI50 [5] was 3.02 µM, the TGI [5] was 8.21 µM and the GI50 [6] was 2.39 µM. For the same compound, the TGI [6] was 10.4 µM, the GI50 [7] was 0.625 µM and the TGI [7] was 2.84 µM. It also gave a GI50 [8] of 2.38 µM and a TGI [8] of 6.08 µM.
With `C[C@@]12CCC(=O)c3coc(c31)C(=O)c1cc3c(cc12)C(=O)C=CC3=O` the GI50 [1] was greater than 1 µM, the TGI [1] was > 1 µM and 38.4 µM and the GI50 [2] was greater than 1 µM. The TGI [2] was greater than 100 µM, the GI50 [3] was greater than 1 µM and the TGI [3] was > 1 µM and 5.5 µM. The GI50 [4] was greater than 1 µM, the TGI [4] was > 1 µM and 86 µM and the GI50 [5] was greater than 1 µM. For the same compound, the TGI [5] was > 1 µM and 36 µM, the GI50 [6] was greater than 1 µM and the TGI [6] was > 1 µM and 30.2 µM. The GI50 [7] was greater than 1 µM, the TGI [7] was greater than 100 µM and the GI50 [8] was greater than 1 µM. The TGI [8] was > 1 µM and 31.1 µM, the GI50 [9] was greater than 1 µM and the TGI [9] was greater than 71.2 µM.
With `CCOc1cc2c(C(=O)CC)c(O)ccc2o1` the TGI [1] was greater than 100 µM, the TGI [2] was greater than 100 µM and the TGI [3] was 23 µM. For the same compound, the TGI [4] was greater than 100 µM, the TGI [5] was greater than 100 µM and the TGI [6] was greater than 100 µM. It also gave a TGI [7] greater than 100 µM, a TGI [8] greater than 100 µM and a TGI [9] greater than 100 µM.
